From PubChem BioAssay AID256 (DTP/NCI, 2004)
Several values for one entry are separate records, joined by “and”; a condition that tells them apart may be missing. Equal values may be shown once. Toxic doses and inconclusive results are not listed. The calls were made as follows: active = survival T/C of 150% or more; inactive = T/C below 125% in these data.

System: CD2F1 mice, L1210 leukemia ip, survival T/C
Test: NCI In Vivo Anticancer Drug Screen. Data for tumor model L1210 Leukemia (intraperitoneal) in CD2F1 (CDF1) mice
Settings: higher = longer survival
How it was run: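 In this screen, transplantable tumors were grown in mice given either the compound or its vehicle. Results were expressed as the treated measurement relative to the control measurement.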

[1] = endpoint: mean survival time, dose: 100.0 mg/kg/injection, schedule: Q04DX003 (ip), vehicle: Klucel (hydroxypropylcellulose) (HPC)
[2] = endpoint: mean survival time, dose: 200.0 mg/kg/injection, schedule: Q04DX003 (ip), vehicle: Klucel (hydroxypropylcellulose) (HPC)
[3] = endpoint: mean survival time, dose: 25.0 mg/kg/injection, schedule: Q01DX009 (ip), vehicle: saline with Tween-80
[4] = endpoint: mean survival time, dose: 50.0 mg/kg/injection, schedule: Q01DX009 (ip), vehicle: saline with Tween-80
[5] = endpoint: mean survival time, dose: 100.0 mg/kg/injection, schedule: Q01DX009 (ip), vehicle: saline with Tween-80
[6] = endpoint: mean survival time, dose: 75.0 mg/kg/injection, schedule: Q01DX001 (ip), vehicle: saline
[7] = endpoint: mean survival time, dose: 12.5 mg/kg/injection, schedule: Q01DX009 (ip), vehicle: saline with Tween-80
[8] = endpoint: mean survival time, dose: 200.0 mg/kg/injection, schedule: Q01DX009 (ip), vehicle: saline with Tween-80
[9] = endpoint: mean survival time, dose: 400.0 mg/kg/injection, schedule: Q01DX009 (ip), vehicle: saline with Tween-80
[10] = endpoint: mean survival time, dose: 100.0 mg/kg/injection, schedule: Q04DX003 (ip), vehicle: saline with Tween-80
[11] = endpoint: mean survival time, dose: 200.0 mg/kg/injection, schedule: Q04DX003 (ip), vehicle: saline with Tween-80
[12] = endpoint: mean survival time, dose: 400.0 mg/kg/injection, schedule: Q04DX003 (ip), vehicle: saline with Tween-80
[13] = endpoint: mean survival time, dose: 100.0 mg/kg/injection, schedule: Q04DX003 (ip), vehicle: saline
[14] = endpoint: mean survival time, dose: 200.0 mg/kg/injection, schedule: Q04DX003 (ip), vehicle: saline

Measured: T/C

O=c1[nH]c2ccccc2nc1C(Cl)Cl
inactive: endpoint: mean survival time, dose: 25.0 mg/kg/injection, schedule: Q01DX009 (ip), vehicle: Klucel (hydroxypropylcellulose) (HPC) 105 % of control | endpoint: mean survival time, dose: 50.0 mg/kg/injection, schedule: Q01DX009 (ip), vehicle: Klucel (hydroxypropylcellulose) (HPC) 100 % of control | endpoint: mean survival time, dose: 50.0 mg/kg/injection, schedule: Q04DX003 (ip), vehicle: Klucel (hydroxypropylcellulose) (HPC) 114 % of control | endpoint: mean survival time, dose: 100.0 mg/kg/injection, schedule: Q01DX009 (ip), vehicle: Klucel (hydroxypropylcellulose) (HPC) 116 % of control | [1] 105 % of control | [2] 105 % of control | endpoint: median survival time, dose: 50.0 mg/kg/injection, schedule: Q04DX003 (ip), vehicle: Klucel (hydroxypropylcellulose) (HPC) 107 % of control | endpoint: median survival time, dose: 100.0 mg/kg/injection, schedule: Q04DX003 (ip), vehicle: Klucel (hydroxypropylcellulose) (HPC) 104 % of control | endpoint: median survival time, dose: 200.0 mg/kg/injection, schedule: Q04DX003 (ip), vehicle: Klucel (hydroxypropylcellulose) (HPC) 117 % of control

N#CC1=C(C#N)C(=O)c2ccccc2C1=O
inactive: [3] 98 % of control | [4] 97 % of control | [5] 88 % of control

CCCCCC1C(O)C(=O)OC1(C(F)(F)F)C(F)(F)F (stereo not drawn)
inactive: [1] 91 % of control | [2] 94 % of control | endpoint: mean survival time, dose: 400.0 mg/kg/injection, schedule: Q04DX003 (ip), vehicle: Klucel (hydroxypropylcellulose) (HPC) 96 % of control

CNC(C1CCCCC1)C(C)OC(=O)c1ccc(N)cc1 (stereo not drawn)
inactive: [6] 100 % of control

O=C(Nc1cccc2ccccc12)OC1CCCCC1Br (stereo not drawn)
inactive: endpoint: mean survival time, dose: 6.25 mg/kg/injection, schedule: Q01DX001 (ip), vehicle: saline with Tween-80 100 % of control | endpoint: mean survival time, dose: 12.5 mg/kg/injection, schedule: Q01DX001 (ip), vehicle: saline with Tween-80 92 % of control | endpoint: mean survival time, dose: 25.0 mg/kg/injection, schedule: Q01DX001 (ip), vehicle: saline with Tween-80 100 % of control | endpoint: mean survival time, dose: 50.0 mg/kg/injection, schedule: Q01DX001 (ip), vehicle: saline with Tween-80 93 % of control | endpoint: mean survival time, dose: 100.0 mg/kg/injection, schedule: Q01DX001 (ip), vehicle: saline with Tween-80 89 % of control

CCOC(=O)[C@]1(Br)CC[C@@]1(Br)C(=O)OCC
inactive: [7] 96 % of control | [3] 95 % of control and 96 % of control | [4] 92 % of control and 96 % of control | [5] 93 % of control and 101 % of control | [8] 100 % of control and 101 % of control | [9] 98 % of control and 106 % of control

CSc1ncnc2c1cnn2C1OC(COC(C)=O)C(OC(C)=O)C1OC(C)=O (stereo not drawn)
inactive: endpoint: median survival time, dose: 9.0 mg/kg/injection, schedule: Q01DX005 (ip), vehicle: distilled water + Tween-80 101 % of control | endpoint: median survival time, dose: 9.0 mg/kg/injection, schedule: Q01DX009 (ip), vehicle: distilled water + Tween-80 100 % of control | endpoint: median survival time, dose: 18.0 mg/kg/injection, schedule: Q01DX005 (ip), vehicle: distilled water + Tween-80 98 % of control | endpoint: median survival time, dose: 18.0 mg/kg/injection, schedule: Q01DX009 (ip), vehicle: distilled water + Tween-80 101 % of control | endpoint: median survival time, dose: 36.0 mg/kg/injection, schedule: Q01DX005 (ip), vehicle: distilled water + Tween-80 108 % of control | endpoint: median survival time, dose: 36.0 mg/kg/injection, schedule: Q01DX009 (ip), vehicle: distilled water + Tween-80 100 % of control | endpoint: median survival time, dose: 72.0 mg/kg/injection, schedule: Q01DX009 (ip), vehicle: distilled water + Tween-80 107 % of control | endpoint: median survival time, dose: 144.0 mg/kg/injection, schedule: Q01DX005 (ip), vehicle: distilled water + Tween-80 118 % of control | endpoint: median survival time, dose: 144.0 mg/kg/injection, schedule: Q01DX009 (ip), vehicle: distilled water + Tween-80 113 % of control

Cc1cccc(=O)n1Cc1ccccc1
inactive: [10] 95 % of control | [11] 95 % of control | [12] 95 % of control

OC(CN(C1CCCCC1)C1CCCCC1)c1ccc(Cl)c(Cl)c1 (stereo not drawn)
inactive: endpoint: mean survival time, dose: 100.0 mg/kg/injection, schedule: Q01DX001 (ip), vehicle: saline 95 % of control | [13] 95 % of control | endpoint: mean survival time, dose: 200.0 mg/kg/injection, schedule: Q01DX001 (ip), vehicle: saline 91 % of control | [14] 98 % of control | endpoint: mean survival time, dose: 400.0 mg/kg/injection, schedule: Q01DX001 (ip), vehicle: saline 96 % of control | endpoint: mean survival time, dose: 400.0 mg/kg/injection, schedule: Q04DX003 (ip), vehicle: saline 101 % of control

Nc1ncnc2c1nc([Se])n2C1OC(CO)C(O)C1O (stereo not drawn)
inactive: endpoint: mean survival time, dose: 12.5 mg/kg/injection, schedule: Q01DX005 (ip), vehicle: water 100 % of control | endpoint: mean survival time, dose: 25.0 mg/kg/injection, schedule: Q01DX005 (ip), vehicle: water 97 % of control | endpoint: mean survival time, dose: 50.0 mg/kg/injection, schedule: Q01DX005 (ip), vehicle: water 100 % of control | endpoint: mean survival time, dose: 100.0 mg/kg/injection, schedule: Q01DX005 (ip), vehicle: water 95 % of control | endpoint: mean survival time, dose: 200.0 mg/kg/injection, schedule: Q01DX005 (ip), vehicle: water 90 % of control

OC(CC(O)(C(F)(F)F)C(F)(F)F)CC(O)(C(F)(F)F)C(F)(F)F
inactive: endpoint: mean survival time, dose: 6.25 mg/kg/injection, schedule: Q01DX009 (ip), vehicle: saline with Tween-80 95 % of control | [7] 92 % of control | [3] 90 % of control

CC(C)OC(=O)Nc1ccc(F)c(F)c1
inactive: [5] 95 % of control | [8] 98 % of control | [9] 114 % of control

COC(CN(C)Cc1c[nH]c2ccccc12)OC
inactive: [6] 107 % of control

CCOC(=O)C(C(=O)OCC)=C1CCC(=O)O1
inactive: endpoint: mean survival time, dose: 100.0 mg/kg/injection, schedule: Q04DX002 (ip), vehicle: saline with Tween-80 111 % of control | endpoint: mean survival time, dose: 200.0 mg/kg/injection, schedule: Q04DX002 (ip), vehicle: saline with Tween-80 90 % of control

O=C1c2ccccc2C(c2ccccc2)(c2ccccc2)N1c1ccccc1
inactive: [10] 107 % of control | [11] 104 % of control | [12] 107 % of control

CS(=O)(=O)OCC(O)C(O)COS(C)(=O)=O (stereo not drawn)
inactive: endpoint: mean survival time, dose: 50.0 mg/kg/injection, schedule: Q01DX007 (ip), vehicle: saline 107 % of control | endpoint: mean survival time, dose: 50.0 mg/kg/injection, schedule: Q01DX009 (ip), vehicle: saline 101 % of control | endpoint: mean survival time, dose: 50.0 mg/kg/injection, schedule: Q03DX003 (ip), vehicle: saline 104 % of control | endpoint: mean survival time, dose: 50.0 mg/kg/injection, schedule: Q04DX003 (ip), vehicle: saline 103 % of control | endpoint: mean survival time, dose: 100.0 mg/kg/injection, schedule: Q01DX007 (ip), vehicle: saline 104 % of control | endpoint: mean survival time, dose: 100.0 mg/kg/injection, schedule: Q01DX009 (ip), vehicle: saline sonified 102 % of control | endpoint: mean survival time, dose: 100.0 mg/kg/injection, schedule: Q01DX009 (ip), vehicle: saline 104 % of control | endpoint: mean survival time, dose: 100.0 mg/kg/injection, schedule: Q03DX003 (ip), vehicle: saline 104 % of control | endpoint: mean survival time, dose: 100.0 mg/kg/injection, schedule: Q04DX003 (ip), vehicle: saline sonified 100 % of control | [13] 100 % of control | endpoint: mean survival time, dose: 200.0 mg/kg/injection, schedule: Q01DX007 (ip), vehicle: saline 105 % of control | endpoint: mean survival time, dose: 200.0 mg/kg/injection, schedule: Q01DX009 (ip), vehicle: saline sonified 96 % of control | endpoint: mean survival time, dose: 200.0 mg/kg/injection, schedule: Q01DX009 (ip), vehicle: saline 106 % of control | endpoint: mean survival time, dose: 200.0 mg/kg/injection, schedule: Q03DX003 (ip), vehicle: saline 102 % of control | endpoint: mean survival time, dose: 200.0 mg/kg/injection, schedule: Q04DX003 (ip), vehicle: saline sonified 108 % of control | [14] 114 % of control | endpoint: mean survival time, dose: 400.0 mg/kg/injection, schedule: Q01DX009 (ip), vehicle: saline sonified 100 % of control | endpoint: mean survival time, dose: 400.0 mg/kg/injection, schedule: Q04DX003 (ip), vehicle: saline sonified 102 % of control

CC(C(C(=O)O)S(=O)(=O)O)C(C(=O)O)S(=O)(=O)O (stereo not drawn)
inactive: endpoint: mean survival time, dose: 12.5 mg/kg/injection, schedule: Q01DX001 (ip), vehicle: other 91 % of control | endpoint: mean survival time, dose: 25.0 mg/kg/injection, schedule: Q01DX001 (ip), vehicle: other 95 % of control | endpoint: mean survival time, dose: 50.0 mg/kg/injection, schedule: Q01DX001 (ip), vehicle: other 98 % of control
